Measured values reported in US10112941B2, “Tricyclic compounds as anticancer agents” (BRISTOL-MYERS SQUIBB COMPANY, priority 2013, dated 2018).

Molecular target: BRD4 (Homo sapiens, UniProt O60885)
Experiment: Time Resolved Fluorescence Resonance Energy Transfer (TR-FRET) binding assay, BRD4
Details: one of the FRET assays described; read-out: FRET BRD4 IC50

Structure (SMILES)	IC50
[2H]C([2H])(O)c1ccc2c3ncc(-c4c(C)nnn4C)cc3n([C@H](c3ccccc3)C3CCOCC3)c2c1 [Example 407, [3-(Dimethyl-1H-1,2,3-triazol-5-yl)-5-[(S)-oxan-4-yl(phenyl)methyl]-5H-pyrido[3,2-b]indol-7-yl](^2H2)methanol]	< 5 nM
Cc1nnn(C)c1-c1cnc2c3ccc(CS(C)(=O)=O)cc3n([C@@H](c3ncccc3F)C3CCOCC3)c2c1 [Example 333]	< 5 nM
Cc1noc(C)c1-c1cnc2c3ccc(C(C)(C)O)cc3n([C@@H](CCC(F)(F)F)c3ccccn3)c2c1 [Example 23]	< 5 nM
Cc1nnn(C)c1-c1cnc2c3ccc(C(C)(C)O)cc3n(C(c3ccccc3Cl)C3CCOCC3)c2c1 (single isomer, unassigned) [Example 402]	< 5 nM
[2H]C([2H])([2H])c1nnn(C)c1-c1cnc2c3ccc(C(C)(O)C4CC4)c(F)c3n([C@H](c3ccccc3F)C3CCOCC3)c2c1 (stereo partly drawn) [Example 437, 1-Cyclopropyl-1-{6-fluoro-5-[(S)-(2-fluorophenyl)(oxan-4-yl)methyl]-3-[4-(^2H3)methyl-1-methyl-1H-1,2,3-triazol-5-yl]-5H-pyrido[3,2-b]indol-7-yl}ethan-1-ol]	< 5 nM
[2H]C([2H])([2H])c1nnn(C)c1-c1cnc2c3c(F)cc(S(C)(=O)=O)cc3n([C@H](c3ccccc3F)C3CCOCC3)c2c1 [Example 196, 5-{9-Fluoro-5-[(S)-(2-fluorophenyl)(oxan-4-yl)methyl]-7-methanesulfonyl-5H-pyrido[3,2-b]indol-3-yl}-4-(^2H3)methyl-1-methyl-1H-1,2,3-triazole]	< 25 nM
Cc1noc(C)c1-c1cnc2c3ccc(C(C)(C)O)cc3n(C(c3cc(F)cc(F)c3)C3CCOCC3)c2c1 (single isomer, unassigned) [Example 130, 2-{5-[(3,5-Difluorophenyl)(oxan-4-yl)methyl]-3-(dimethyl-1,2-oxazol-4-yl)-5H-pyrido[3,2-b]indol-7-yl}propan-2-ol]	< 5 nM
COc1ccc(C(C2CCOCC2)n2c3cc(C(C)(C)O)ccc3c3ncc(-c4c(C)nnn4C)cc32)c(F)c1F (single isomer, unassigned) [Example 121, 2-{5-[(2,3-Difluoro-4-methoxyphenyl)(oxan-4-yl)methyl]-3-(dimethyl-1H-1,2,3-triazol-5-yl)-5H-pyrido[3,2-b]indol-7-yl}propan-2-ol]	< 25 nM
[2H]C([2H])([2H])c1nnn(C)c1-c1cnc2c3ccc(C(C)(C)O)cc3n(C(c3cc(C)on3)C3CCOCC3)c2c1 (stereo not drawn) [Example 309, 2-{5-[(5-Methyl-1,2-oxazol-3-yl)(oxan-4-yl)methyl]-3-[4-(^2H3)methyl-1-methyl-1H-1,2,3-triazol-5-yl]-5H-pyrido[3,2-b]indol-7-yl}propan-2-ol]	< 25 nM
Cc1noc(C(C2CCOCC2)n2c3cc(C(C)(C)O)ccc3c3ncc(-c4c(C)nnn4C)cc32)n1 (single isomer, unassigned) [Example 300]	< 25 nM
Cc1nnn(C)c1-c1cnc2c3ccc(C(C)(C)O)cc3n(C(c3c(F)cccc3F)C3CCOCC3)c2c1 (single isomer, unassigned) [Example 134, 2-{5-[(2,6-Difluorophenyl)(oxan-4-yl)methyl]-3-(dimethyl-1H-1,2,3-triazol-5-yl)-5H-pyrido[3,2-b]indol-7-yl}propan-2-ol]	< 5 nM
Cc1nnn(C)c1-c1cnc2c3ccc(C(C)(C)O)cc3n([C@H](CCC(F)(F)F)c3ccccc3)c2c1 [Example 58]	< 5 nM
Cc1noc(C)c1-c1cnc2c3ccc(C(C)(C)O)cc3n([C@H](c3ccc(F)cc3)C3CCC3)c2c1 [Example 15]	< 5 nM
Cc1nnn(C)c1-c1cnc2c3cc(C(C)(C)O)ccc3n([C@H](c3ccccc3)C3CCOCC3)c2c1 [Example 175, 2-[3-(Dimethyl-1H-1,2,3-triazol-5-yl)-5-[(S)-oxan-4-yl(phenyl)methyl]-5H-pyrido[3,2-b]indol-8-yl]propan-2-ol]	< 5 nM
Cc1cccnc1C(C1CCOCC1)n1c2cc(C(C)(C)O)ccc2c2ncc(-c3c(C)nnn3C)cc21 (single isomer, unassigned) [Example 301]	< 5 nM
COCC(c1ccccc1)n1c2cc(C(C)(C)O)ccc2c2ncc(-c3c(C)noc3C)cc21 (stereo not drawn) [Example 5]	< 5 nM
[2H]C([2H])([2H])Oc1nnn(C)c1-c1cnc2c3ccc(NC(=O)OC(C)C)cc3n([C@H](c3ccccc3)C3CCOCC3)c2c1 [Example 392, Propan-2-yl N-{3-[4-(^2H3)methoxy-1-methyl-1H-1,2,3-triazol-5-yl]-5-[(S)-oxan-4-yl(phenyl)methyl]-5H-pyrido[3,2-b]indol-7-yl}carbamate]	< 5 nM
Cc1nnn(C)c1-c1cnc2c3ccc(C(C)(C)O)cc3n(C(c3ccccc3)C3CCC(F)(F)CC3)c2c1 (single isomer, unassigned) [Example 205]	< 5 nM
Cc1nnn(C)c1-c1cnc2c3c(F)cc(C(C)(C)O)cc3n(C(c3ccc(F)cc3F)C3CCOCC3)c2c1 (single isomer, unassigned) [Example 111, 2-{5-[(2,4-Difluorophenyl)(oxan-4-yl)methyl]-3-(dimethyl-1H-1,2,3-triazol-5-yl)-9-fluoro-5H-pyrido[3,2-b]indol-7-yl}propan-2-ol]	< 5 nM
Cc1nnn(C)c1-c1cnc2c3c(S(C)(=O)=O)cccc3n(C(c3ccccc3F)C3CCOCC3)c2c1 (single isomer, unassigned) [Example 115, 5-{5-[(2-Fluorophenyl)(oxan-4-yl)methyl]-9-methanesulfonyl-5H-pyrido[3,2-b]indol-3-yl}-1,4-dimethyl-1H-1,2,3-triazole]	< 5 nM
Cc1nnn(C)c1-c1cnc2c3ccc(C(C)(C)O)cc3n([C@@H](c3ccccc3F)C3CCOCC3)c2c1 [Example 77]	< 5 nM
Cc1nnn(C)c1-c1cnc2c3ccc(C(C)(C)O)cc3n([C@@H](c3ccccc3)C3CCOCC3)c2c1 (single isomer, unassigned) [Example 55, 2-[3-(Dimethyl-1H-1,2,3-triazol-5-yl)-5-[oxan-4-yl(phenyl)methyl]-5H-pyrido[3,2-b]indol-7-yl]propan-2-ol]	< 5 nM
[2H]C([2H])([2H])c1nnn(C)c1-c1cnc2c3ccc(S(C)(=O)=O)cc3n(C(c3cc(C)on3)C3CCOCC3)c2c1 (stereo not drawn) [Example 330, 5-{7-Methanesulfonyl-5-[(5-methyl-1,2-oxazol-3-yl)(oxan-4-yl)methyl]-5H-pyrido[3,2-b]indol-3-yl}-4-(^2H3)methyl-1-methyl-1H-1,2,3-triazole]	< 25 nM
Cc1nnn(C)c1-c1cnc2c3ccc(C(C)(C)O)cc3n(C(c3ccc(F)cc3F)C3CCOCC3)c2c1 (single isomer, unassigned) [Example 135, 2-{5-[(2,4-Difluorophenyl)(oxan-4-yl)methyl]-3-(dimethyl-1H-1,2,3-triazol-5-yl)-5H-pyrido[3,2-b]indol-7-yl}propan-2-ol]	< 5 nM
Cn1nnc(Br)c1-c1cnc2c3cc(Br)c(C(C)(C)O)cc3n([C@H](c3ccccc3)C3CCOCC3)c2c1 [Example 383, 2-[8-Bromo-3-(4-bromo-1-methyl-1H-1,2,3-triazol-5-yl)-5-[(S)-oxan-4-yl(phenyl)methyl]-5H-pyrido[3,2-b]indol-7-yl]propan-2-ol]	< 5 nM
Cc1nnn(C)c1-c1cnc2c3ccc(C(C)(C)O)cc3n(C(c3ncccc3Cl)C3CCOCC3)c2c1 (single isomer, unassigned) [Example 303]	< 5 nM
COc1cnccc1C(C1CCOCC1)n1c2cc(C(C)(C)O)ccc2c2ncc(-c3c(C)nnn3C)cc21 (stereo not drawn) [Example 291]	< 5 nM
